Experimental data: ChEMBL document CHEMBL5465560, “Selectivity Literature for EUbOPEN Chemogenomic Library” (2024)
One block for each molecule: values may come before it.

Tests used:
[1] = molecular target: T1, Scaffold protein ILK (Homo sapiens) (UniProt Q13418); test: Selectivity interaction (ActivX KiNativ screen (kinase selectivity in THP-1 cell lysates)) EUB0000639a ILK; type: subcellular; settings: lysate, at 5 µM
T1 sequence (whole entry): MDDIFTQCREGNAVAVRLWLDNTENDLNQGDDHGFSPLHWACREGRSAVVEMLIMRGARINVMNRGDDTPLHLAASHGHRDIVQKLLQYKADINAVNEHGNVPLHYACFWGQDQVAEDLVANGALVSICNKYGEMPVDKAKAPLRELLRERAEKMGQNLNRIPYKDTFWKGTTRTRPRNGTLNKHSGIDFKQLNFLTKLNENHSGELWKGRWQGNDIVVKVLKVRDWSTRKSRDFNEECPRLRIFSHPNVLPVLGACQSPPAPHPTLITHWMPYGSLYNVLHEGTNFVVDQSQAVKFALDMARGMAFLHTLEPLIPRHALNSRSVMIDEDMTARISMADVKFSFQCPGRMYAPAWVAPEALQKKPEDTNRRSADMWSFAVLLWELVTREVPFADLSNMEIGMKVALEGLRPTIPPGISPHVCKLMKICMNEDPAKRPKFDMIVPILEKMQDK

[2] = molecular target: T2, Serine/threonine-protein kinase DCLK1 (Homo sapiens) (UniProt O15075); test: Selectivity interaction (KinomeScan (DiscoverX)) EUB0000595a DCLK1; settings: at 10 µM
T2 sequence (whole entry): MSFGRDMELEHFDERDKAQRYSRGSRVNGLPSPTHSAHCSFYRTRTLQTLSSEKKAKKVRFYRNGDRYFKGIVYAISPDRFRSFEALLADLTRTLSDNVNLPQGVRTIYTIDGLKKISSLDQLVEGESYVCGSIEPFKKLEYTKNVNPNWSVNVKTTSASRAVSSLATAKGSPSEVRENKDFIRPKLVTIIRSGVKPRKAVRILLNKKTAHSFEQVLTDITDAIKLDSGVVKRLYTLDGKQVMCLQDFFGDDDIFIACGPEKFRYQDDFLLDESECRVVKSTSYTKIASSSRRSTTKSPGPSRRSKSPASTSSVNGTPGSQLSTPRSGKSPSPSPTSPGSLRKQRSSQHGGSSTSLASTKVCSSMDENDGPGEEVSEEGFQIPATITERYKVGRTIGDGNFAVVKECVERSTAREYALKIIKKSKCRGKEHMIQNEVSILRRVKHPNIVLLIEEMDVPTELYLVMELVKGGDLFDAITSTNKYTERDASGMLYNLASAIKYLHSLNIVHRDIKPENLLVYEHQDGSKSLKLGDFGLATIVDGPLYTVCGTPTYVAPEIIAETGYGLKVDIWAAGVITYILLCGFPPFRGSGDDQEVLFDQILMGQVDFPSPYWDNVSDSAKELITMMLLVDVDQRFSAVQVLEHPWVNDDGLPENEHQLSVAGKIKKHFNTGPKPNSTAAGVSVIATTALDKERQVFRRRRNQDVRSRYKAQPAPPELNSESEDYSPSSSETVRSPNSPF

[3] = molecular target: T3, Serine/threonine-protein kinase Nek9 (Homo sapiens) (UniProt Q8TD19); test: Selectivity interaction (KinomeScan (DiscoverX)) EUB0000595a NEK9; settings: at 10 µM
T3 sequence (whole entry): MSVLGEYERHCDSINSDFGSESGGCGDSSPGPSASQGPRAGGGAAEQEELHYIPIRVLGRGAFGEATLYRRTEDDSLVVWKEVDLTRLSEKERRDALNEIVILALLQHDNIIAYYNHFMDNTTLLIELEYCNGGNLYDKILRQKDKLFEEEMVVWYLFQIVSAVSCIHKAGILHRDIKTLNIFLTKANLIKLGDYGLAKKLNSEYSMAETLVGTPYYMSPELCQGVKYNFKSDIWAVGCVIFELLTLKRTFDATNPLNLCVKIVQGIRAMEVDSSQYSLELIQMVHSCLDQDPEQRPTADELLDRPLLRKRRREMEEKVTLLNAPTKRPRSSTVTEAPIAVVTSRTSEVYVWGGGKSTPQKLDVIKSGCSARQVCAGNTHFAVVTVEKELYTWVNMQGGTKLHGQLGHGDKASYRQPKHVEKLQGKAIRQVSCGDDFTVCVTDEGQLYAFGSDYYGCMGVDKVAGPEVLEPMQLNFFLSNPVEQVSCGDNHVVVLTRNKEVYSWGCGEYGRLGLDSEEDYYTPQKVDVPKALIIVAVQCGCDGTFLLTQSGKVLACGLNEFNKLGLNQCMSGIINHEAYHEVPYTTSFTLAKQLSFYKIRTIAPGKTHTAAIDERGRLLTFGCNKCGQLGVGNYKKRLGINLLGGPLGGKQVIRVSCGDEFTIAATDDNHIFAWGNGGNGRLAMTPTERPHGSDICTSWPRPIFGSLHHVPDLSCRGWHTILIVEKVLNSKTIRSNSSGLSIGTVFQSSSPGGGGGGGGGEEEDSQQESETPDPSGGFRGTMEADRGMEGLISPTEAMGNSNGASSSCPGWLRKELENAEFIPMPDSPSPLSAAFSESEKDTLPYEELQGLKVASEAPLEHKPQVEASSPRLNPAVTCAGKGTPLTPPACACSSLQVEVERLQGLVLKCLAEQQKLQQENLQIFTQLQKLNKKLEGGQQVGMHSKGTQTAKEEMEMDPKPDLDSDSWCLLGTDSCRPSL

[4] = molecular target: Mitogen-activated protein kinase 8 (Homo sapiens, UniProt P45983); test: Selectivity interaction (KinomeScan (DiscoverX)) EUB0000655a MAPK8; settings: at 10 µM
[5] = molecular target: Receptor tyrosine-protein kinase erbB-2 (Homo sapiens, UniProt P04626); test: Selectivity interaction (KinomeScan (DiscoverX)) EUB0000607a ERBB2; settings: at 10 µM
Receptor tyrosine-protein kinase erbB-2, sequence (P04626 whole entry): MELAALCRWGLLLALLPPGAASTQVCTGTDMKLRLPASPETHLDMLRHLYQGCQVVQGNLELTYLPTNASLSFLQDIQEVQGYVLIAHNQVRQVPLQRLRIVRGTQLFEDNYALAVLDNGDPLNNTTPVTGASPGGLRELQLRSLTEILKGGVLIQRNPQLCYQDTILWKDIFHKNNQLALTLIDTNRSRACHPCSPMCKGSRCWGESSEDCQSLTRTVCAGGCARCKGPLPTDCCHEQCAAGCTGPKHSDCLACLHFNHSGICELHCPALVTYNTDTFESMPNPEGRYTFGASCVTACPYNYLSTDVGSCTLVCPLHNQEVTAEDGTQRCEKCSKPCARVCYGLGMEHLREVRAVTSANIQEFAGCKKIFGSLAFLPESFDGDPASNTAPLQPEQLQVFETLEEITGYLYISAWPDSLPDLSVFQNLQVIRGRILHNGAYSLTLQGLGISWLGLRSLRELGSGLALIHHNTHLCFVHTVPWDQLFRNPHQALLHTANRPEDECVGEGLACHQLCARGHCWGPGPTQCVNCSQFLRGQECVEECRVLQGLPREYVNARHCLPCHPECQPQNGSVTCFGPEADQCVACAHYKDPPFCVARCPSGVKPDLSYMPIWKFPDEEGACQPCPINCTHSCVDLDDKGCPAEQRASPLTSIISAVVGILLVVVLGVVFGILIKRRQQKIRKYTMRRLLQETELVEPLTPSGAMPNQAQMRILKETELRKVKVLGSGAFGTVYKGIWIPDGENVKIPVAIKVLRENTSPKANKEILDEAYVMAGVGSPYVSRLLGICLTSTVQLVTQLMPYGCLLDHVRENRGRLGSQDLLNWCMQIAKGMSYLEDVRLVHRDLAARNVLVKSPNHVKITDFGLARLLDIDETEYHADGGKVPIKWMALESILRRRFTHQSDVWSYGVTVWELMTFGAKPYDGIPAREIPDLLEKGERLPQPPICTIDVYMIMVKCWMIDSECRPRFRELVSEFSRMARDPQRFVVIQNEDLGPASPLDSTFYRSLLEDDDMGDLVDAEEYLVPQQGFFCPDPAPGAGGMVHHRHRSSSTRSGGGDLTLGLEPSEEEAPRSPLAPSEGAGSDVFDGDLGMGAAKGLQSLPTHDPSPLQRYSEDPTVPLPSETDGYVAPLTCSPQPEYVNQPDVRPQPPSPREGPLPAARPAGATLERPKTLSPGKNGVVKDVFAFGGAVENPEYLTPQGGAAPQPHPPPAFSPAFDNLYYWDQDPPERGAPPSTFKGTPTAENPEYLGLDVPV

Mitogen-activated protein kinase 8, sequence (P45983 whole entry): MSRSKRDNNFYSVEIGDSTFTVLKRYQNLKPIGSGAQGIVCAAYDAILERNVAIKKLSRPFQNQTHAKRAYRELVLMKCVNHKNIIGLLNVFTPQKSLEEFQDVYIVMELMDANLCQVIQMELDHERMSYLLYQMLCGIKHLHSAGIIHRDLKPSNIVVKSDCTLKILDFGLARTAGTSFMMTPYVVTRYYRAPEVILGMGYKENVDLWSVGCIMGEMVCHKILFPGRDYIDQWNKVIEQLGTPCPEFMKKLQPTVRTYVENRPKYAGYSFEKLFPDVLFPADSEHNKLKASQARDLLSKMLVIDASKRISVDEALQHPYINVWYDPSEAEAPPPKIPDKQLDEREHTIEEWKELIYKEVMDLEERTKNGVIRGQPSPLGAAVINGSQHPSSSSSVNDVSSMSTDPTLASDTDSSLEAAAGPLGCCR

% of inhibition [1]: -24.1%
SMILES: CC[C@@H]1[C@H](F)C(=O)N[C@@H]1COc1nccc2cc(C(N)=O)c(OC)cc12 [ZIMLOVISERTIB]

SMILES: COCC(=O)NC/C=C/c1ccc2ncnc(Nc3ccc(Oc4ccc(C)nc4)c(C)c3)c2c1 [CP-724714]
% of control [2]: 100%
% of control [3]: 82%

SMILES: CN(C)CCOc1ccc(-c2nc(-c3ccncc3)c(-c3ccc4c(c3)CC/C4=N\O)[nH]2)cc1
% of control [4]: 92%

SMILES: CNC(=O)Nc1ccc(-c2nc(N3CC4CCC(C3)O4)c3cnn(C4CCC5(CC4)OCCO5)c3n2)cc1
% of control [5]: 88%
